Results taken from US20030130280A1, “Treatment of acute myeloid leukemia with indolinone compounds” (SUGEN, Inc., priority 2001, published 2003).

Experiments:
Mutant FLT-3 (ITD) = molecular target: T1, Mutant FLT-3 (ITD) (Homo sapiens, UniProt P36888, INS600HVDFREYEYD); test: FLT-3 phosphorylation by immunoprecipitation/Western in MV411 cells; type: cell-based; settings: for Mutant FLT-3 (inhibition of phosphorylation): MV411 cells, IP/Western; as to Mutant FLT-3 (inhibition of phosphorylation): key: +++: very strong inhibition; ++: inhibition; +/−: weak inhibition; −: no inhibition
T1 sequence (P36888 27-993 INS600HVDFREYEYD): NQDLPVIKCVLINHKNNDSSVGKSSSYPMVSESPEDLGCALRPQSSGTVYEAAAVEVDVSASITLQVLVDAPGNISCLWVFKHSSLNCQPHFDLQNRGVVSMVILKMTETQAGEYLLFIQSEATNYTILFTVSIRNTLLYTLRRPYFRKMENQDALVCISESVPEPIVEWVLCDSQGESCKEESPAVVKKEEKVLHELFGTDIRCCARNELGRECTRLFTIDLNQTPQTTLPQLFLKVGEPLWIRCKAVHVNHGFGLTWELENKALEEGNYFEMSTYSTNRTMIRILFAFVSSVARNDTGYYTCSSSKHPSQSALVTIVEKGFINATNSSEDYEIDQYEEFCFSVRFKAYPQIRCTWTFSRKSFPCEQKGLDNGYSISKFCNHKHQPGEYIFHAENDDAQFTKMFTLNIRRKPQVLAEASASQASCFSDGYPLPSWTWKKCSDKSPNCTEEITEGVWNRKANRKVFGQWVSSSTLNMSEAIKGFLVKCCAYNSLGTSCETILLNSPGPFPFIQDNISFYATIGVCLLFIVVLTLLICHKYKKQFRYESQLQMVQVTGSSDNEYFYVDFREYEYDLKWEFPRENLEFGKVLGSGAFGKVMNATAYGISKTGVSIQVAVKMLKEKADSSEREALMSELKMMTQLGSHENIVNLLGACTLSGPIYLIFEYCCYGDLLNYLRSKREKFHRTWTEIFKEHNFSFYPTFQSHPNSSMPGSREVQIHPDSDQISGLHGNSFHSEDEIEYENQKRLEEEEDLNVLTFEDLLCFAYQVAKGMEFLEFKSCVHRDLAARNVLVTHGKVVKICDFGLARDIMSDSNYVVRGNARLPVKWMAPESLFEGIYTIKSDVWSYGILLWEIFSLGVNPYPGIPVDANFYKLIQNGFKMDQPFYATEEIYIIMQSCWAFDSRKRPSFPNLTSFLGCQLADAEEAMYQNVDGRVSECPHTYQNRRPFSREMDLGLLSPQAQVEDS
Description: FLT-3 was immunoprecipitated from lysates with a commercially available antibody. Proteins were separated by SDS-polyacrylamide gel electrophoresis, transferred to membranes analyzed by Western blotting for phosphotyrosine and subsequently for total FLT-3 protein as control.
The comparative example is a known protein kinase inhibitor having the following formula: [drawing 18]
(§1) Immunoprecipitation and Western Blot (IP/W) analysis: Cells were lysed in lysis buffer (20 mM Tris, pH 7.5; 137 mM NaCl; 10% glycerol; 1% NP-40; 0.1% SDS; 2 mM EDTA) containing protease and phosphatase inhibitors (50 mM sodium fluoride, 1 mM sodium orthovanadate, 2 mM Pefabloc, […], […], […], 4 mM leupeptin, and 4 mM pepstatin A). Equivalent amounts of protein were separated by SDS-PAGE, then transferred to nitrocellulose membranes. For analysis of FLT3 phosphorylation, equivalent amounts of protein from each sample were immunoprecipitated overnight at 4*C. with an agarose-conjugated anti-FLT3 antibody (Santa Cruz Biotechnology, Santa Cruz, Calif.). Immune complexes were washed (150 mM NaCl, 1.5 mM MgCl2, 50 mM HEPES, pH 7.5, 10% glycerol, 0.1% Triton X-100, and 1 mM EGTA) and following SDS-PAGE, proteins were transferred to nitrocellulose membranes. Membranes were probed with an anti-phosphotyrosine antibody (Upstate, Lake Placid, N.Y. or Transduction Laboratories, Lexington, Ky.) and then stripped with Restore Western Blot Stripping Buffer (Pierce, Rockford, Ill.). Membranes were reprobed with an anti-FLT3 antibody (Santa Cruz Biotechnology). Stat5 antibodies for immunprecipitation and Western blot analysis were from Upstate Biotechnology and Transduction labs respectively.

Wild-type FLT-3 = molecular target: T2, Wild-type FLT-3 (Homo sapiens, UniProt P36888); test: FLT-3 phosphorylation by immunoprecipitation/Western in RS411 cells; type: cell-based; settings: for Wild-type FLT-3 (inhibition of phosphorylation): RS411 cells, IP/Western; as to Wild-type FLT-3 (inhibition of phosphorylation): key: +++: very strong inhibition; ++: inhibition; +/−: weak inhibition; −: no inhibition
T2 construct: host or cells: RS411 (RS4;11)
T2 sequence (P36888 27-993): T1 sequence (P36888 27-993 INS600HVDFREYEYD)
Description: FLT-3 was immunoprecipitated from lysates with a commercially available antibody. Proteins were separated by SDS-polyacrylamide gel electrophoresis, transferred to membranes analyzed by Western blotting for phosphotyrosine and subsequently for total FLT-3 protein as control. […]
as §1

Structure (SMILES) | Mutant FLT-3 (inhibition of phosphorylation) (Mutant FLT-3 (ITD)) | inhibition of mutant FLT-3 phosphorylation (Mutant FLT-3 (ITD); in words) | Wild-type FLT-3 (inhibition of phosphorylation) (Wild-type FLT-3) | inhibition of wild-type FLT-3 phosphorylation (Wild-type FLT-3; in words)
Cc1[nH]c(/C=C2\C(=O)Nc3ccccc32)c(C)c1CCC(=O)O [Comparative, reference compound] | − | no inhibition | − | no inhibition
Cc1[nH]c(C=C2C(=O)Nc3ccc(F)cc32)c(C)c1C(=O)NCCN1CCCC1 [Compound 2, 5-(5-Fluoro-2-oxo-1,2-dihydro-indol-3-ylidenemethyl)-2,4-dimethyl-1H-pyrrole-3-carboxylic acid(2-pyrrolidin-1-yl-ethyl)-amide] | ++ |  | ++ | 
Cc1[nH]c(C=C2C(=O)Nc3ccc(F)cc32)c(C)c1C(=O)NCCN1CCOCC1 [Compound 3, 5-(5-Fluoro-2-oxo-1,2-dihydro-indol-3-ylidenemethyl)-2,4-dimethyl-1H-pyrrole-3-carboxylic acid(2-morpholin-4-yl-ethyl)-amide] |  |  | +/− | 
Cc1[nH]c(C=C2C(=O)Nc3ccc(Cl)cc32)c(C)c1C(=O)NCC(O)CN1CCOCC1 (stereo not drawn) [Compound 7, 5-(5-Chloro-2-oxo-1,2-dihydro-indol-3-ylidenemethyl)-2,4-dimethyl-1H-pyrrole-3-carboxylic acid(2-hydroxy-3-morpholin-4-yl-propyl)-amide] |  |  | ++ | 
CCNCCNC(=O)c1c(C)[nH]c(C=C2C(=O)Nc3ccc(F)cc32)c1C [Compound 8, 5-(5-Fluoro-2-oxo-1,2-dihydro-indol-3-ylidenemethyl)-2,4-dimethyl-1H-pyrrole-3-carboxylic acid(2-ethylamino-ethyl)-amide] |  |  | ++ | 
Cc1[nH]c(/C=C2\C(=O)Nc3ccc(F)cc32)c(C)c1C(=O)N1CCC(N2CCOCC2)CC1 [Compound 9, 3-[3,5-dimethyl-4-(4-morpholin-4-yl-piperidine-1-carbonyl)-1H-pyrrol-2-methylene]-5-fluoro-1,3-dihydro-indol-2-one] |  |  | ++ | 
Cc1cc(CCC(=O)O)c(C=C2C(=O)Nc3ccccc32)[nH]1 [Compound 10, 3-[5-methyl-2-(2-oxo-1,2-dihydro-indol-3-ylidenemethyl)-1H-pyrrol-3-yl]-propionic acid] | − |  | +/− | 
